Several values for one entry are separate records, joined by “and”; a condition that tells them apart may be missing. Equal values may be shown once.
Legend:
Assay in all cases: CIMA assay (colorimetric indicator of metabolic activity), 72 h exposure
A549 (lung carcinoma) = type: cell-based, human; settings: A549, SDS 5% control; 0 = 100.0
Procedure: (§1) Stock solutions of the extracts were prepared in dimethylsulfoxide (DMSO) at 10 mg/mL and stored in 200 μl aliquots at −20° C. until analysis. This preparation ensured that the DMSO delivered to cells in culture never exceeded 1%.
(§2) Prepared extracts were assessed following chronic exposure conditions in which cells were seeded at 2×10^3 cells/well (96 wells plate) and incubated with test compounds for 72 h. Each compound was evaluated over a range of concentrations (0, 10, 25, 50 or 100 μg/ml). Cell proliferation was initially assessed using a standard colorimetric indicator of metabolic activity (CIMA) assay. In this assay, tetrazole reduction was evaluated as a measure of metabolic function that evaluates mitochondrial activity to determine the extent of cell proliferation within a culture. This assay is based on the reduction of yellow tetrazolium salt to purple formazan by mitochondrial reductases enzyme in viable cells, resulting in a color changed that confers a change in absorbance. […] From the results shown in Table 2 and FIGS. 4 and 5, the extracts were selected for additional fractionation and evaluated in the same manner.

[1] = system: SKOV3 (ovarian adenocarcinoma); type: cell-based, human; settings: SKOV3, SDS 5% control; 0 = 100.0; in % (unit assumed)
Procedure: as §1
(§3) Prepared extracts were assessed following chronic exposure conditions in which cells were seeded at 2×10^3 cells/well (96 wells plate) and incubated with test compounds for 72 h. Each compound was evaluated over a range of concentrations (0, 10, 25, 50 or 100 μg/ml). Cell proliferation was initially assessed using a standard colorimetric indicator of metabolic activity (CIMA) assay. In this assay, tetrazole reduction was evaluated as a measure of metabolic function that evaluates mitochondrial activity to determine the extent of cell proliferation within a culture. This assay is based on the reduction of yellow tetrazolium salt to purple formazan by mitochondrial reductases enzyme in viable cells, resulting in a color changed that confers a change in absorbance. Six human cell lines were selected for primary evaluation: U373 (glioblastoma-astrocytoma), A549 (lung carcinoma), THP-1 (acute monocytic leukemia), MCF7 (mammary gland adenocarcinoma), SKOV3 (ovarian adenocarcinoma), and CCD1079SK (fibroblast, noncancerous but proliferating). From the results shown in Table 2 and FIGS. 4 and 5, the extracts were selected for additional fractionation and evaluated in the same manner.
(§4) Lead crude extracts were fractionated into five fractions by C-18 SPE column separation using 15 ml each of 5% methanol (fraction 1), 25% methanol (fraction 2), 50% methanol (fraction 3), 100% methanol (fraction 4) and […] (fraction 5). Extracts were fractionated and the resulting fractions were evaluated using CIMA assay. Bio-assay guided fractionation provided detailed information regarding the compound(s) responsible for specific bioactivity.

[2] = system: CCD1079SK (fibroblast, noncancerous but proliferating); type: cell-based, human; settings: SDS 5% control, 0 = 100.0, in % (unit assumed)
Procedure: as §1, §3, §4

[3] = system: U373 (glioblastoma-astrocytoma); type: cell-based, human; settings: U373, SDS 5% control; 0 = 100.0; in % (unit assumed)
Procedure: as §1, §3, §4

[4] = system: THP-1 (acute monocytic leukemia); type: cell-based, human; settings: THP-1, SDS 5% control; 0 = 100.0; in % (unit assumed)
Procedure: as §1, §3, §4

[5] = system: MCF7 (mammary gland adenocarcinoma); type: cell-based, human; settings: MCF7, SDS 5% control; 0 = 100.0; in % (unit assumed)
Procedure: as §1, §3, §4

PC3 = type: cell-based; settings: PC3, SDS 5% control; 0 = 100.0
Procedure: as §1, §2

CCCCCCCCCCCCOS(=O)(=O)[O-].[Na+] [SDS]
AVG (viability, CIMA assay) (A549 (lung carcinoma)): 68.7% | AVG (viability, CIMA assay) [1]: 78.9 and 56.5 | AVG (viability, CIMA assay) [2]: 9.4 and 11.3 | AVG (viability, CIMA assay) [3]: 48.4 and 58.1 | AVG (viability, CIMA assay) [4]: 20.3 and 36.2 | AVG (viability, CIMA assay) [5]: 44.1 and 49.9 | AVG (viability, CIMA assay) (PC3): 77.3%
